Measurements reported in US9353089B2, “Compositions and methods for the treatment of malaria” (Saint Louis University, priority 2013, dated 2016).
Where two headings read alike, the source gives them in different places. Marks after values point to notes of the source that are not given here.

How the values were obtained:
[1] = test system: Plasmodium chabaudi ASS and ASCQ strains; experiment: In vivo antimalarial efficacy 4-day suppressive test; conditions: NIH mice, Day 4 postinoculation
Protocol: Briefly, NIH mice (n=8 per group) were inoculated i.p. with 2×10^7 parasitized (Plasmodium chabaudi ASS or ASCQ) red blood cells. […] Groups (n=6) including a vehicle control and chloroquine (CQ) as a reference drug were included. Parasitemia levels were determined on the day following the last treatment (Day 4).

[2] = Human Plasma Protein Binding (hPPB) assay; format: in vitro ADME; conditions: rapid equilibrium dialysis
Protocol: Human Plasma Protein Binding (hPPB) of test compounds was measured by rapid equilibrium dialysis device using the RED Device Inserts. In the reaction of 5 h, the drug concentration of the sample chamber and buffer chamber can be determined, through which we can calculated hPPB of test compounds. RED Device Inserts and Single-Use RED Base Plate were purchased from the Linden Bioscience, Woburn, Mass. (Taiwan, Thermo scientific). […]. Pooled human plasma from healthy individuals in this study was obtained from the Southern Medical University (China) and was stored frozen at −20° C. until use. SHZ-88A Reciprocating thermostatic oscillator was purchased from Taicang City Experimental Equipment Co. (China). Chlorpromazine (>99% in purity, positive control) and Phenacetin (>99% in purity, internal standard, IS) were all purchased from the Sigma Chemical Co. (China). Chlorpromazine HCl was used as a positive control. An aliquot ([…]) of plasma was accurately added into the sample chamber, and 6 μL compounds solution (500 μM, 50% DMSO) was added (n=3). An aliquot (500 μL) of Dulbecco solution was added into the buffer chamber. These solution were all oscillated for 5 hours (37° C., 90 rpm). Then, 50 μL solution in sample chamber was removed, 50 μL Dulbecco solution was added, and mixed. Also, 50 μL solution in buffer chamber was removed, 50 μL plasma was added, and mixed. 200 μL ACN (including internal Standard, 100 ng/mL) were added separately, oscillated, mixed, and centrifuged (20 min, 15000 g). An aliquot (50 μL) of the supernatant was accurately transferred to a clean 1.5 mL test tube and 100 μL H2O was added, mixed. 10 μL of mixture was separately injected into LC-MS system for determination of the drug concentration in the sample chamber and buffer chamber. The data were analyzed using the following equation: % hPPB=[1−(Concentrationbuffer chamber/Concentrationplasma chamber)]*100% (Barre, et al., 1985, which is incorporated herein by reference).

[3] = Plasma compound concentration in the in vivo efficacy study; conditions: mice; for concentration at 1 h / concentration at 6 h / concentration at 24 h: NIH, mouse, plasma; for concentration at 1 h: 1 h post last dose on Day 3; for concentration at 6 h: 6 h post last dose on Day 3; for concentration at 24 h: 24 h post last dose on Day 3
[4] = Rat pharmacokinetic (PK) analysis; format: in vivo; conditions: for half-life: male, SD, plasma, read-out: Rat PK t1/2 (converted)
Protocol: Male SD rats, weighing 180-220 g (Southern China Medical University, China) were utilized for the studies. Animals were maintained on standard animal chow and water ad libitum, in a climate controlled room (23±1° C.), 30-70% relative humidity, a minimum of 10 exchanges of room air per hour and a 12-h light/dark cycle) for one week prior to experiments. The test compound was dissolved in suitable solvent. Pharmacokinetic properties were determined following i.v. and oral administration. Animals were randomly distributed into two experimental groups (n=4). The oral groups were given 5 mg/kg of the test compound by gastric gavage. The other group was dosed by injection into the tail vein (1 mg/kg). […]; 2, 10, 30 min and 1, 2, 3, 4, 6, 8, 11 and 24 h (i.v.). Whole blood samples were collected in heparinized tubes. The plasma fraction was immediately separated by centrifugation (8,000 rpm, 6 min, 4° C.) and stored at −20° C. until LC-MS analysis. The rats were humanely euthanasia by carbon dioxide 24 hours after experiment without pain.
Plasma Sample Analysis. Standard Curve Sample Preparation:
The compound was dissolved in DMSO at a concentration of 2 mg/mL and diluted with 50% methanol solution to series concentration as follow: 20, 50, 100, 500, 1000, 2000, 4000, 6000, 12000, 40000 ng/mL. 10 μL series concentration solution and 50 μL blank plasma were added to 1.5 mL tube and vortex for 3 min, then 150 μL acetonitrile containing internal standard were added and vortex for 5 min, finally spin tube in centrifuge at 16000 g for 40 min at 4° C. Plasma sample preparation: The plasma samples were prepared using protein precipitation method. […] LC/MS/MS analysis: After centrifuge, 100 μL supernatant was transfer to the 96 well plate and analyzed by LC-MS/MS using an Applied Biosystems-Sciex model API 3000 mass spectrometer. The pharmacokinetics parameters were calculated by analyzing the compound concentration in plasma samples using the pharmacokinetic software DAS.2.0.

[5] = test system: Plasmodium falciparum 3D7 (CQ-sensitive); experiment: In vitro antimalarial assay (malaria SYBR Green I-based fluorescence, MSF), 3D7; format: cell-based
Summary of the method: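 Asynchronous P. falciparum 3D7 cultures (0.5% parasitemia, 2% hematocrit) were exposed to serially diluted compounds, in quadruplicate. Growth was then quantified by SYBR Green I fluorescence after adding lysis buffer containing 0.2 μL/mL dye.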

[6] = target: recombinant human BACE1 (Homo sapiens, UniProt P56817); experiment: β-Secretase (BACE1) enzyme inhibition FRET assay; format: biochemical
Sequence of recombinant human BACE1 (P56817 46-501 limits assumed): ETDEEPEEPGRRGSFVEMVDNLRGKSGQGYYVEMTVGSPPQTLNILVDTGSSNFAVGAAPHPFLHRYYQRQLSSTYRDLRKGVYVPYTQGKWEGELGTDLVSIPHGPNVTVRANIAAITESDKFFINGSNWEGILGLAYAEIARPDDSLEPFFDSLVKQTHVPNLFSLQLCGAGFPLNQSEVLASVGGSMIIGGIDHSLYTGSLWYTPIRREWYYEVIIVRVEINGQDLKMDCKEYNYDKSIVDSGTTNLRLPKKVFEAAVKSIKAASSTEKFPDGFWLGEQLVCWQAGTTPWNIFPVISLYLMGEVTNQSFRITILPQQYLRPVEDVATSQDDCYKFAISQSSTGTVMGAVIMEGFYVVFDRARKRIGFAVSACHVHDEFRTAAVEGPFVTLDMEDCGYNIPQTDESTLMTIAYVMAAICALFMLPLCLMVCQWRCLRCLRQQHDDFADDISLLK
Summary of the method: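 FRET cleavage by rhBACE1 with substrate at 20 μM final, 60 min at room temperature. Time-resolved fluorescence read at Ex/Em 360/460 nm. IC50 obtained by non-linear regression.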

[7] = 100 mpk orally once daily for four days
[8] = 3D7, 48 h, read-out: Pf 3D7 IC50 (μM, 48 hr), 48 hr
[9] = 3D7, 72 h, read-out: Pf 3D7 IC50 (μM, 72 hr), 72 hr
[10] = 3D7, read-out: 3D7 IC50 (μM), Table 13
[11] = 3D7, read-out: Pf3D7 IC50 (μM), Table 10
[12] = 3D7, read-out: Pf 3D7 IC50, Table 8

Compound | % Inhibition of parasitemia [1, 7] | hPPB (%) [2] | concentration at 1 h ([3]; 100 mg/kg, 100 mpk oral) | concentration at 6 h ([3]; 100 mg/kg, 100 mpk oral) | concentration at 24 h ([3]; 100 mg/kg, 100 mpk oral) | half-life [4] | IC50 [5, 8] | IC50 [5, 9] | IC50 [5, 10] | IC50 [5, 11] | IC50 [5, 12] | IC50 ([6]; Table 8, read-out: BACE IC50) | IC50 ([6]; Table 13, read-out: BACE1 IC50) | % Inhibition of parasitemia ([1]; 110 mpk orally once daily for four days) | concentration at 24 h ([3]; 110 mg/kg, 110 mpk oral) | Plasma [compound] (ng/mL), determined at 30 min post dose ([3]; 110 mpk oral, 30 min post last dose on Day 3) | Rat PK oral bioavailability (% F) ([4]; 5 mg/kg oral, 1 mg/kg i.v.)
COc1ccc(C2(c3ccc(OC)cc3)NC(=N)N(C3CCN(C(=O)OC(C)(C)C)CC3)C2=O)cc1 [Example 206, tert-butyl 4-[2-imino-4,4-bis(4-methoxyphenyl)-5-oxoimidazolidin-1-yl]piperidine-1-carboxylate] | 73% | 99.7% | 2.52 µg/mL | 2.19 µg/mL | 0.007 µg/mL | 1.2 h | 0.339 µM | 0.383 µM | 0.436 µM | 0.436 µM | 0.383 µM | 6.01 µM | – | – | – | – | –
COc1ccc(C2(c3ccc(OC)cc3)NC(=N)N(CC3CCOCC3)C2=O)cc1 [Example 275, 2-imino-5,5-bis(4-methoxyphenyl)-3-(oxan-4-ylmethyl)imidazolidin-4-one] | 41% | 88.7% | 10.4 µg/mL | 3.03 µg/mL | 0.123 µg/mL | – | 0.571 µM | 0.463 µM | 0.521 µM | 0.463 µM | 0.463 µM | 2.07 µM | 2.07 µM | – | – | – | –
COc1ccc(C2(c3ccc(OC)cc3)NC(=N)N(C3CCOCC3)C2=O)cc1 [Example 176, 2-imino-5,5-bis(4-methoxyphenyl)-3-(oxan-4-yl)-imidazolidin-4-one] | – | 78.1% | – | – | – | 1.1 h | 0.404 µM | 0.459 µM | 0.459 µM | 0.459 µM | 0.453 µM | ~10 µM | ~10.1 µM | 63% | 0.029 µg/mL | 4140^e ng/mL | 21 % F
